Key:
Format in all cases: functional
OVCAR-3 [1] = assay: Growth inhibition of human OVCAR3 cells assessed as cell growth at 10^-4 M by sulforhodamine B assay; settings: read-out: Activity
SF-295 = assay: Growth inhibition of human SF295 cells assessed as cell growth at 10^-8 M by sulforhodamine B assay; settings: read-out: Activity
OVCAR-5 = assay: Growth inhibition of human OVCAR5 cells assessed as cell growth at 10^-7 M by sulforhodamine B assay; settings: read-out: Activity
CCRF-CEM [2] = assay: Growth inhibition of human CCRF-CEM cells by sulforhodamine B assay
SNB-19 = assay: Growth inhibition of human SNB19 cells by sulforhodamine B assay
HCT-15 [3] = assay: Growth inhibition of human HCT15 cells assessed as cell growth at 10^-4 M by sulforhodamine B assay; settings: read-out: Activity
HCT-15 [4] = assay: Growth inhibition of human HCT15 cells by sulforhodamine B assay
HL-60(TB) = assay: Growth inhibition of human HL-60(TB) cells assessed as cell growth at 10^-6 M by sulforhodamine B assay; settings: read-out: Activity
MOLT-4 [5] = assay: Growth inhibition of human MOLT4 cells assessed as cell growth at 10^-6 M by sulforhodamine B assay; settings: read-out: Activity
CCRF-CEM [6] = assay: Growth inhibition of human CCRF-CEM cells assessed as cell growth at 10^-7 M by sulforhodamine B assay; settings: read-out: Activity
Malme-3M = assay: Growth inhibition of human MALME-3M cells assessed as cell growth at 10^-7 M by sulforhodamine B assay; settings: read-out: Activity
OVCAR-3 [7] = assay: Growth inhibition of human OVCAR3 cells assessed as cell growth at 10^-8 M by sulforhodamine B assay; settings: read-out: Activity
SK-MEL-2 = assay: Growth inhibition of human SK-MEL-2 cells assessed as cell growth at 10^-7 M by sulforhodamine B assay; settings: read-out: Activity
M14 [8] = assay: Growth inhibition of human M14 cells assessed as cell growth at 10^-8 M by sulforhodamine B assay; settings: read-out: Activity
T47D = assay: Growth inhibition of human T47D cells assessed as cell growth at 10^-4 M by sulforhodamine B assay; settings: read-out: Activity
LOX IMVI = assay: Growth inhibition of human LOXIMVI cells assessed as cell growth at 10^-8 M by sulforhodamine B assay; settings: read-out: Activity
BT-549 [9] = assay: Growth inhibition of human BT549 cells assessed as cell growth at 10^-6 M by sulforhodamine B assay; settings: read-out: Activity
MOLT-4 [10] = assay: Growth inhibition of human MOLT4 cells assessed as cell growth at 10^-7 M by sulforhodamine B assay; settings: read-out: Activity
CCRF-CEM [11] = assay: Growth inhibition of human CCRF-CEM cells assessed as cell growth at 10^-6 M by sulforhodamine B assay; settings: read-out: Activity
SF-539 = assay: Growth inhibition of human SF539 cells assessed as cell growth at 10^-6 M by sulforhodamine B assay; settings: read-out: Activity
SN12C = assay: Growth inhibition of human SN12C cells assessed as cell growth at 10^-4 M by sulforhodamine B assay; settings: read-out: Activity
NCI-H460 = assay: Growth inhibition of human NCI-H460 cells assessed as cell growth at 10^-6 M by sulforhodamine B assay; settings: read-out: Activity
[12] = Growth inhibition of human HCC2998 cells assessed as cell growth at 10^-4 M by sulforhodamine B assay; settings: HCC 2998, read-out: Activity
RXF 393 = assay: Growth inhibition of human RXF393 cells assessed as cell growth at 10^-8 M by sulforhodamine B assay; settings: read-out: Activity
HCT-116 = assay: Growth inhibition of human HCT116 cells by sulforhodamine B assay
U-251 = assay: Growth inhibition of human U251 cells assessed as cell growth at 10^-7 M by sulforhodamine B assay; settings: read-out: Activity
786-0 [13] = assay: Growth inhibition of human 786-0 cells by sulforhodamine B assay
M14 [14] = assay: Growth inhibition of human M14 cells by sulforhodamine B assay
COLO 205 [15] = assay: Growth inhibition of human COLO205 cells assessed as cell growth at 10^-6 M by sulforhodamine B assay; settings: read-out: Activity
IGROV-1 = assay: Growth inhibition of human IGROV1 cells assessed as cell growth at 10^-6 M by sulforhodamine B assay; settings: read-out: Activity
NCI-H522 = assay: Growth inhibition of human NCI-H522 cells assessed as cell growth at 10^-4 M by sulforhodamine B assay; settings: read-out: Activity
SK-MEL-5 = assay: Growth inhibition of human SK-MEL-5 cells assessed as cell growth at 10^-8 M by sulforhodamine B assay; settings: read-out: Activity
BT-549 [16] = assay: Growth inhibition of human BT549 cells assessed as cell growth at 10^-7 M by sulforhodamine B assay; settings: read-out: Activity
MDA-MB-231 = assay: Growth inhibition of human MDA-MB-231 cells by sulforhodamine B assay
COLO 205 [17] = assay: Growth inhibition of human COLO205 cells by sulforhodamine B assay
CAKI-1 = assay: Growth inhibition of human CAKI-1 cells by sulforhodamine B assay
HOP-62 [18] = assay: Growth inhibition of human HOP62 cells assessed as cell growth at 10^-4 M by sulforhodamine B assay; settings: read-out: Activity
HOP-62 [19] = assay: Growth inhibition of human HOP62 cells assessed as cell growth at 10^-8 M by sulforhodamine B assay; settings: read-out: Activity
786-0 [20] = assay: Growth inhibition of human 786-0 cells assessed as cell growth at 10^-8 M by sulforhodamine B assay; settings: read-out: Activity
[21] = read-out: LC50 (the source's name)
[22] = read-out: pLC50 (the source's name) (converted)

## CC(C)=CC(=O)O[C@@H]1CC(C)(C)C[C@H]2C3=CC[C@@H]4[C@@]5(C)CCC(=O)C(C)(C)[C@@H]5CC[C@@]4(C)[C@]3(C)CC[C@@]12C(=O)O
OVCAR-3 [1]
  growth at 100 µM: -73%
SF-295
  growth at 0.01 µM: 86%
OVCAR-5
  growth at 0.1 µM: 91%
CCRF-CEM [2]; read-out: GI50
  GI50: 2.14 µM
CCRF-CEM [2]; [21]
  CC50: > 100 µM
CCRF-CEM [2]; read-out: TGI
  TGI: 22.1 µM
CCRF-CEM [2]; read-out: pGI50 (converted)
  GI50: 2.14 µM
CCRF-CEM [2]; [22]
  CC50: > 100 µM
CCRF-CEM [2]; read-out: pTGI (converted)
  TGI: 22.4 µM
SNB-19; read-out: GI50
  GI50: 4.25 µM
SNB-19; [21]
  CC50: > 100 µM
SNB-19; read-out: TGI
  TGI: > 100 µM
SNB-19; read-out: pGI50 (converted)
  GI50: 4.27 µM
SNB-19; [22]
  CC50: > 100 µM
SNB-19; read-out: pTGI (converted)
  TGI: > 100 µM
HCT-15 [3]
  growth at 100 µM: -34%
HCT-15 [4]; read-out: GI50
  GI50: 1.29 µM
HCT-15 [4]; read-out: LC50
  LC50 (50% lethal concentration): > 100 µM
HCT-15 [4]; read-out: TGI
  TGI: 15.6 µM
HCT-15 [4]; read-out: pGI50 (converted)
  GI50: 1.29 µM
HCT-15 [4]; read-out: pLC50 (converted)
  LC50 (50% lethal concentration): > 100 µM
HCT-15 [4]; read-out: pTGI (converted)
  TGI: 15.5 µM
HL-60(TB)
  growth at 1 µM: 94%
MOLT-4 [5]
  growth at 1 µM: 85%
CCRF-CEM [6]
  growth at 0.1 µM: 99%
Malme-3M
  growth at 0.1 µM: 90%
OVCAR-3 [7]
  growth at 0.01 µM: 104%
SK-MEL-2
  growth at 0.1 µM: 94%
M14 [8]
  growth at 0.01 µM: 98%
T47D
  growth at 100 µM: 23%
LOX IMVI
  growth at 0.01 µM: 98%
BT-549 [9]
  growth at 1 µM: 90%
MOLT-4 [10]
  growth at 0.1 µM: 100%
CCRF-CEM [11]
  growth at 1 µM: 71%
SF-539
  growth at 1 µM: 90%
SN12C
  growth at 100 µM: -38%
NCI-H460
  growth at 1 µM: 71%
[12]
  growth at 100 µM: -68%
RXF 393
  growth at 0.01 µM: 97%
HCT-116; read-out: GI50
  GI50: 2.35 µM
HCT-116; read-out: LC50
  LC50: > 100 µM
HCT-116; read-out: TGI
  TGI: 53.5 µM
HCT-116; read-out: pGI50 (converted)
  GI50: 2.34 µM
HCT-116; read-out: pLC50 (converted)
  LC50: > 100 µM
HCT-116; read-out: pTGI (converted)
  TGI: 53.7 µM
U-251
  growth at 0.1 µM: 90%
786-0 [13]; read-out: GI50
  GI50: 3.69 µM
786-0 [13]; [21]
  CC50: > 100 µM
786-0 [13]; read-out: TGI
  TGI: 20.2 µM
786-0 [13]; read-out: pGI50 (converted)
  GI50: 3.72 µM
786-0 [13]; [22]
  CC50: > 100 µM
786-0 [13]; read-out: pTGI (converted)
  TGI: 20 µM
M14 [14]; read-out: GI50
  GI50: 6.52 µM
M14 [14]; [21]
  CC50: 76.6 µM
M14 [14]; read-out: TGI
  TGI: 25.2 µM
M14 [14]; read-out: pGI50 (converted)
  GI50: 6.46 µM
M14 [14]; [22]
  CC50: 75.9 µM
M14 [14]; read-out: pTGI (converted)
  TGI: 25.1 µM
COLO 205 [15]
  growth at 1 µM: 103%
IGROV-1
  growth at 1 µM: 98%
NCI-H522
  growth at 100 µM: -20%
SK-MEL-5
  growth at 0.01 µM: 99%
BT-549 [16]
  growth at 0.1 µM: 109%
MDA-MB-231; read-out: GI50
  GI50: 4.03 µM
MDA-MB-231; [21]
  CC50: 71.1 µM
MDA-MB-231; read-out: TGI
  TGI: 21.8 µM
MDA-MB-231; read-out: pGI50 (converted)
  GI50: 4.07 µM
MDA-MB-231; [22]
  CC50: 70.8 µM
MDA-MB-231; read-out: pTGI (converted)
  TGI: 21.9 µM
COLO 205 [17]; read-out: GI50
  GI50: 3.61 µM
COLO 205 [17]; read-out: LC50
  LC50: 49.1 µM
COLO 205 [17]; read-out: TGI
  TGI: 12.3 µM
COLO 205 [17]; read-out: pGI50 (converted)
  GI50: 3.63 µM
COLO 205 [17]; read-out: pLC50 (converted)
  LC50: 49 µM
COLO 205 [17]; read-out: pTGI (converted)
  TGI: 12.3 µM
CAKI-1; read-out: GI50
  GI50: 3.84 µM
CAKI-1; [21]
  CC50: > 100 µM
CAKI-1; read-out: TGI
  TGI: 84.8 µM
CAKI-1; read-out: pGI50 (converted)
  GI50: 3.8 µM
CAKI-1; [22]
  CC50: > 100 µM
CAKI-1; read-out: pTGI (converted)
  TGI: 85.1 µM
HOP-62 [18]
  growth at 100 µM: -21%
HOP-62 [19]
  growth at 0.01 µM: 93%
786-0 [20]
  growth at 0.01 µM: 99%

Source: ChEMBL document CHEMBL2413072, “Synthesis and in vitro anticancer studies of novel C-2 arylidene congeners of lantadenes” (2013)
